From patent US20080119463A1, “4-Anilino-3-quinolinecarbonitriles for the treatment of acute myelogenous leukemia (AML)” (Wyeth, priority 2006, published 2008)
Where two headings read alike, the source gives them in different places.

Assays:
[1] = tested on: U937 cells; assay: proliferation assay of human AML cell line U937 (Cell Titer Glo, 3 days); format: cell-based; conditions: 3 days growth, Cell Titer Glo luminescence, read-out: IC50 (μM) from proliferation assays of human AML cell lines
Experimental: (§1) These compounds were prepared according to previously published methods (Boschelli, D. H., et. al., J. Med. Chem., 44, 3965 (2001); Boschelli, D. H., et. al., J. Med. Chem., 44, 822 (2001); Boschelli, D. H., et. al., Bioorg. Med. Chem. Lett., 13, 3797 (2003); Boschelli, D. H., et. al., J. Med. Chem., 47, 1599 (2004); and Ye, F. et al., 221st National Meeting of the American Chemical Society, San Diego, Calif. (April, 2001)), hereby incorporated by reference. For this study, 1×10^2 to 1×10^3 cells were plated in 95 μl of growth medium in each well of a 96-well microtiter plate. Compounds were added in 5 μl of medium such that the final concentration of DMSO in the medium was 0.25%. Cells were allowed to grow in a cell culture incubator (37° C.) for 3 days, at which time 100 μl of Promega Cell Titer Glo agent was added. Luminescence (lum) was measured in an Envision microplate reader. Data were processed by first obtaining % inhibition (100−(lum+cpd/lum−cpd); cpd […]). The data were then analyzed with the LSW IC50 calculation model ligand-receptor binding/hyperbolic (y=Bmax/(1+(x/IC50)). The IC50 is the concentration of test compound needed to reduce the total amount of cell proliferation by 50%.
For relevant experiments described above, standard growth medium for a particular cell line was used. For example, the growth medium for U937 cells is: RPMI 1640 supplemented with glutamine, 10% fetal bovine serum, and 50 μg/ml of gentamicin.

[2] = tested on: KG-1a cells; assay: proliferation assay of human AML cell line KG-1a (Cell Titer Glo, 3 days); format: cell-based; conditions: 72 h, 3 days growth, Cell Titer Glo luminescence, read-out: IC50 (μM) from proliferation assays of human AML cell lines
Experimental: as §1
For relevant experiments described above, standard growth medium for a particular cell line was used. […]

SMILES	IC50 ([1]; Homo sapiens, U-937, 72 h) [µM]	also measured
COc1cc(Nc2c(C#N)cnc3cc4cc(OCCN5CCOCC5)c(OC)cc4cc23)c(Cl)cc1Cl [4-(2,4-dichloro-5-methoxy-anilino)-7-methoxy-8-[2-(4-morpholinyl)-ethoxy]-benzo[g]-quinoline-3-carbonitrile]	5.1	
COc1cc(Nc2c(C#N)cnc3cc(-c4ccc(CN5CCN(C)CC5)cn4)ccc23)c(Cl)cc1Cl [4-(2,4-dichloro-5-methoxy-anilino)-7-{5-[(4-methyl-piperazin-1-yl)-methyl]-2-pyridinyl]-quinoline-3-carbonitrile]	2.4	
COc1cc(Nc2c(C#N)cnc3cc(-c4ccc(CN5CCOCC5)cn4)ccc23)c(Cl)cc1Cl [4-(2,4-dichloro-5-methoxy-anilino)-7-{5-[(4-morpholinyl)-methyl]-2-pyridinyl]-quinoline-3-carbonitrile]	0.73	
COc1cc(Nc2c(C#N)cnc3cc4cc(OCCN5CCOCC5)c(OC)cc4cc23)c(Cl)cc1C [4-(2-chloro-4 methyl-5-methoxy-anilino)-7-methoxy-8-[2-(4-morpholinyl)-ethoxy]-benzo[g]-quinoline-3-carbonitrile]	1.2	
COc1cc2cc3c(Nc4cc(OC)c(OC)c(OC)c4)c(C#N)cnc3cc2cc1OCCN1CCOCC1 [4-(3,4,5-methoxy-anilino)-7-methoxy-8-[2-(4-morpholinyl)-ethoxy]-benzo[g]-quinoline-3-carbonitrile]		IC50 [1]: 2.1 µM
COc1cc(Nc2c(C#N)cnc3cc(OCCCN4CCN(C)CC4)c(OC)cc23)c(Cl)cc1Cl [4-[(2,4-dichloro-5-methoxy-phenyl)amino]-6-methoxy-7-[3-(4-methyl-piperazin-1-yl)-propoxy]-quinoline-3-carbonitrile]		IC50 [2]: 1.11 µM
COc1cc(Nc2c(C#N)cnc3cc(-c4coc(CN5CCN(C)CC5)c4)c(OC)cc23)c(Cl)cc1Cl [4-[(2,4-dichloro-5-methoxy-phenyl)amino]-6-methoxy-7-{5-[(4-methyl-piperazin-1-yl)methyl]-3-furyl}-quinoline-3-carbonitrile]		IC50 [2]: 0.78 µM
